Experimental findings from ChEMBL document CHEMBL1127508, “Conformationally restricted competitive antagonists of human/rat corticotropin-releasing factor” (J Med Chem, 1994) are described below.

Assay [1] has as its target T1, Corticotropin-releasing factor receptor 1 (Rattus norvegicus) (UniProt P35353).
T1 sequence (whole entry): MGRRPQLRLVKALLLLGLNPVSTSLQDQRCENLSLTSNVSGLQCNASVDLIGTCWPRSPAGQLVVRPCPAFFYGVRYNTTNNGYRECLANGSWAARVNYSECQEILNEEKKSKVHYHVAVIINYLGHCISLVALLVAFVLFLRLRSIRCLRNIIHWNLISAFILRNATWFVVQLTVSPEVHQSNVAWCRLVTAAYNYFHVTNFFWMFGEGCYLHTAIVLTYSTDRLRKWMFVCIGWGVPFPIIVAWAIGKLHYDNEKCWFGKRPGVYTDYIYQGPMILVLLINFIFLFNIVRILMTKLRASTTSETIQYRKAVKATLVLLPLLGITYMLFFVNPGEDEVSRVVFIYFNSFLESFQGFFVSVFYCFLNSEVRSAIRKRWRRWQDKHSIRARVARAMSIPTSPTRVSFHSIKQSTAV
Briefly: Relative antagonistic potency in vitro measuring alteration of CRF-induced release of ACTH by rat anterior pituitary cells in culture. It counts as functional, cell-based. As to conditions: Pituitary gland cell.

Assay [2] addresses T1, Corticotropin-releasing factor receptor 1 (Rattus norvegicus). Briefly: Intrinsic activity in ACTH release assay as percent CRF response. It counts as functional.

For `CCCC[C@H](NC(=O)[C@H](CC(C)C)NC(=O)[C@H](CCCCN)NC(=O)[C@H](CCCN=C(N)N)NC(=O)[C@H](CC(N)=O)NC(=O)[C@H](CO)NC(=O)[C@H](Cc1c[nH]cn1)NC(=O)[C@H](C)NC(=O)[C@H](CCC(N)=O)NC(=O)[C@H](CCC(N)=O)NC(=O)[C@H](C)NC(=O)[C@H](CC(C)C)NC(=O)[C@H](CCC(N)=O)NC(=O)[C@H](CCC(=O)O)NC(=O)[C@H](C)NC(=O)[C@H](CCCN=C(N)N)NC(=O)[C@H](C)NC(=O)[C@H](CCCC)NC(=O)[C@H]1CCC(=O)NCCCC[C@H](NC(=O)[C@H](CCCN=C(N)N)NC(=O)[C@H](CC(C)C)NC(=O)[C@H](CC(C)C)NC(=O)[C@H](Cc2c[nH]cn2)NC(=O)[C@H](N)Cc2ccccc2)C(=O)N[C@@H](C(C)C)C(=O)N[C@@H](CC(C)C)C(=O)N1)C(=O)N[C@@H](CCC(=O)O)C(=O)N[C@H](C(=O)N[C@H](C(=O)C(N)=O)[C@@H](C)CC)[C@@H](C)CC`, the Activity in assay [1] is less than 0.001. In assay [2], this compound returned an Intrinsic activity of 23. The corresponding values for `CCCC[C@H](NC(=O)[C@@H]1CCC(=O)NCCCC[C@H](NC(=O)[C@H](CCCN=C(N)N)NC(=O)[C@H](CC(C)C)NC(=O)[C@H](CC(C)C)NC(=O)[C@H](Cc2c[nH]cn2)NC(=O)[C@H](N)Cc2ccccc2)C(=O)N[C@@H](C(C)C)C(=O)N[C@@H](CC(C)C)C(=O)N1)C(=O)N[C@@H](C)C(=O)N[C@@H](CCCN=C(N)N)C(=O)N[C@@H](C)C(=O)N[C@@H](CCC(=O)O)C(=O)N[C@@H](CCC(N)=O)C(=O)N[C@@H](CC(C)C)C(=O)N[C@@H](C)C(=O)N[C@@H](CCC(N)=O)C(=O)N[C@@H](CCC(N)=O)C(=O)N[C@@H](C)C(=O)N[C@@H](Cc1c[nH]cn1)C(=O)N[C@@H](CO)C(=O)N[C@@H](CC(N)=O)C(=O)N[C@@H](CCCN=C(N)N)C(=O)N[C@@H](CCCCN)C(=O)N[C@@H](CC(C)C)C(=O)N[C@@H](CCCC)C(=O)N[C@@H](CCC(=O)O)C(=O)N[C@H](C(=O)N[C@H](C(=O)C(N)=O)[C@@H](C)CC)[C@@H](C)CC` are 0.02 and 3. For `CCCC[C@H](NC(=O)[C@@H]1CC(=O)NCCC[C@H](NC(=O)[C@H](CC(C)C)NC(=O)[C@H](CC(C)C)NC(=O)[C@H](Cc2c[nH]cn2)NC(=O)[C@H](N)Cc2ccccc2)C(=O)N[C@@H](CCC(=O)O)C(=O)N[C@@H](C(C)C)C(=O)N[C@@H](CC(C)C)C(=O)N1)C(=O)N[C@@H](C)C(=O)N[C@@H](CCCN=C(N)N)C(=O)N[C@@H](C)C(=O)N[C@@H](CCC(=O)O)C(=O)N[C@@H](CCC(N)=O)C(=O)N[C@@H](CC(C)C)C(=O)N[C@@H](C)C(=O)N[C@@H](CCC(N)=O)C(=O)N[C@@H](CCC(N)=O)C(=O)N[C@@H](C)C(=O)N[C@@H](Cc1c[nH]cn1)C(=O)N[C@@H](CO)C(=O)N[C@@H](CC(N)=O)C(=O)N[C@@H](CCCN=C(N)N)C(=O)N[C@@H](CCCCN)C(=O)N[C@@H](CC(C)C)C(=O)N[C@@H](CCCC)C(=O)N[C@@H](CCC(=O)O)C(=O)N[C@H](C(=O)N[C@H](C(=O)C(N)=O)[C@@H](C)CC)[C@@H](C)CC`, in that order: 0.001 and 2. The compound `CCCC[C@H](NC(=O)[C@H](CC(C)C)NC(=O)[C@H](CCCCN)NC(=O)[C@H](CCCN=C(N)N)NC(=O)[C@H](CC(N)=O)NC(=O)[C@H](CO)NC(=O)[C@H](Cc1c[nH]cn1)NC(=O)[C@H](C)NC(=O)[C@H](CCC(N)=O)NC(=O)[C@H](CCC(N)=O)NC(=O)[C@H](C)NC(=O)[C@H](CC(C)C)NC(=O)[C@H](CCC(N)=O)NC(=O)[C@H](CCC(=O)O)NC(=O)[C@H](C)NC(=O)[C@H](CCCN=C(N)N)NC(=O)[C@H](C)NC(=O)[C@H](CCCC)NC(=O)[C@H]1CC(=O)NCCC[C@H](NC(=O)[C@H](CC(C)C)NC(=O)[C@H](CC(C)C)NC(=O)[C@H](Cc2c[nH]cn2)NC(=O)[C@H](N)Cc2ccccc2)C(=O)N[C@@H](CCC(=O)O)C(=O)N[C@@H](C(C)C)C(=O)N[C@@H](CC(C)C)C(=O)N1)C(=O)N[C@@H](CCC(=O)O)C(=O)N[C@H](C(=O)N[C@H](C(=O)C(N)=O)[C@@H](C)CC)[C@@H](C)CC` displayed an Activity in assay [1] of 0.006.
